Measured values: patent publication US12692261B2, “Substituted heterocyclic compounds and therapeutic uses thereof” (Bayer Aktiengesellschaft, priority 2020, dated 2026)

Legend:
[1] = target: T1, full-length human CSNK1A1 (Homo sapiens, UniProt P48729); assay: CSNK1A1 Assay 2 (ADP-Glo, 1 μM ATP, substrate biotin-Ahx-KRRRAL-pS-VASLPGL); type: biochemical; conditions: Table 3, read-out: CSNK1A1 Assay 2 IC50 [mol/l] (median)
T1 construct: N-terminal Glutathion-S-Transferase (GST) and full-length human CSNK1A1; purchased Life Technologies PV4174; host or cells: baculovirus infected insect cells
Description: CSNK1A1-inhibitory activity of compounds of the present invention in presence of 1 μM adenosine-tri-phosphate (ATP) was quantified employing the CSNK1A1 assay as described in the following paragraphs. In essence, the enzyme activity is measured by quantification of the adenosine-di-phosphate (ADP), which is generated as a co-product of the enzyme reaction, via the “ADP-Glo™ Kinase Assay” kit from the company Promega. This detection system works as follows: In a first step the ATP not consumed in the kinase reaction is quantitatively converted to cAMP employing an adenylate cyclase (“ADP-Glo-reagent”), then the adenylate cyclase is stopped and the ADP generated in the kinase reaction converted to ATP which generates in a luciferase-based reaction a glow-luminescence signal (“Kinase Detection Reagent”).
(§1) Recombinant fusion protein of N-terminal Glutathion-S-Transferase (GST) and full-length human CSNK1A1, expressed by baculovirus infected insect cells and purified via Glutathion affinity chromatography, was purchased from Life Technologies (product no. PV4174) and used as enzyme. As substrate for the kinase reaction the biotinylated peptide biotin-Ahx-KRRRAL-pS-VASLPGL (C-terminus in amide form) was used which can be purchased e.g. from the company Biosyntan (Berlin-Buch, Germany).
For the assay 50 nl of a 100 fold concentrated solution of the test compound in DMSO was pipetted into a white 1536-well microtiter plate (Greiner Bio-One, Frickenhausen, Germany), 2 μL of a solution of CSNK1A1 in aqueous assay buffer [50 mM HEPES pH 7.5, 10% (v/v) glycerol, 10 mM MgCl2, 50 mM NaCl, 1 mM dithiothreitol, 0.01% (w/v) bovine serum albumin, 0.01% (v/v) Triton X-100] were added and the mixture was incubated for 15 min at 22° C. to allow pre-binding of the test compounds to the enzyme before the start of the kinase reaction. […] The concentration of CSNK1A1 was adjusted depending of the activity of the enzyme lot and was chosen appropriate to have the assay in the linear range, a typical concentrations are about 0.0375 ng/μL. The reaction was stopped by the addition of 2.5 μL of “ADP-Glo-reagent” (1:1.5 fold diluted with water) and the resulting mixture was incubated at 22° C. for 1 h to convert the ATP not consumed in the kinase reaction completely […]. Subsequently 2.5 μL of the “kinase detection reagent” (1.2 fold more concentrated than recommended by the producer) were added, the resulting mixture was incubated at 22° C. for 1 h and then the luminescence measured with a suitable measurement instrument (e.g. Viewlux™ from Perkin-Elmer). The amount of emitted light was taken as a measure for the amount of ADP generated and thereby for the activity of the CSNK1A1.

full-length human CSNK1D = target: T2, full-length human CSNK1D (Homo sapiens, UniProt P48730); assay: CSNK1D Assay (ADP-Glo, 1 μM ATP); type: biochemical; conditions: Table 3, read-out: CSNK1D IC50 [mol/l] (median)
T2 construct: N-terminal Glutathion-S-Transferase (GST) and full-length human CSNK1D; purchased Life Technologies PV3665; host or cells: baculovirus infected insect cells
Description: CSNK1D-inhibitory activity of compounds of the present invention in presence of 1 μM adenosine-tri-phosphate (ATP) was quantified employing the CSNK1 D assay as described in the following paragraphs. In essence, the enzyme activity is measured by quantification of the adenosine-di-phosphate (ADP), which is generated as a co-product of the enzyme reaction, via the “ADP-Glo™ Kinase Assay” kit from the company Promega. This detection system works as follows: In a first step the ATP not consumed in the kinase reaction is quantitatively converted to cAMP employing an adenylate cyclase (“ADP-Glo-reagent”), then the adenylate cyclase is stopped and the ADP generated in the kinase reaction converted to ATP which generates in a luciferase-based reaction a glow-luminescence signal (“Kinase Detection Reagent”).
as §1, with “CSNK1D,” for “CSNK1A1,”, “PV3665)” for “PV4174)”, “Btn-Ahx-[…]” for “biotin-Ahx-KRRRAL-pS-VASLPGL”
For the assay 50 nl of a 100 fold concentrated solution of the test compound in DMSO was pipetted into a white 1536-well microtiter plate (Greiner Bio-One, Frickenhausen, Germany), 2 μL of a solution of CSNK1D in aqueous assay buffer [50 mM HEPES pH 7.5, 10% (v/v) glycerol, 10 mM MgCl2, 50 mM NaCl, 1 mM dithiothreitol, 0.01% (w/v) bovine serum albumin, 0.01% (v/v) Triton X-100] were added and the mixture was incubated for 15 min at 22° C. to allow pre-binding of the test compounds to the enzyme before the start of the kinase reaction. […] The concentration of CSNK1D was adjusted depending of the activity of the enzyme lot and was chosen appropriate to have the assay in the linear range, a typical concentration is about 0.5 ng/μL. The reaction was stopped by the addition of 2.5 μL of “ADP-Glo-reagent” (1:1.5 fold diluted with water) and the resulting mixture was incubated at 22° C. for 1 h to convert the ATP not consumed in the kinase reaction completely […]. Subsequently 2.5 μL of the “kinase detection reagent” (1.2 fold more concentrated than recommended by the producer) were added, the resulting mixture was incubated at 22° C. for 1 h and then the luminescence measured with a suitable measurement instrument (e.g. Viewlux™ from Perkin-Elmer). The amount of emitted light was taken as a measure for the amount of ADP generated and thereby for the activity of the CSNK1D.

T1 sequence (P48729 whole entry): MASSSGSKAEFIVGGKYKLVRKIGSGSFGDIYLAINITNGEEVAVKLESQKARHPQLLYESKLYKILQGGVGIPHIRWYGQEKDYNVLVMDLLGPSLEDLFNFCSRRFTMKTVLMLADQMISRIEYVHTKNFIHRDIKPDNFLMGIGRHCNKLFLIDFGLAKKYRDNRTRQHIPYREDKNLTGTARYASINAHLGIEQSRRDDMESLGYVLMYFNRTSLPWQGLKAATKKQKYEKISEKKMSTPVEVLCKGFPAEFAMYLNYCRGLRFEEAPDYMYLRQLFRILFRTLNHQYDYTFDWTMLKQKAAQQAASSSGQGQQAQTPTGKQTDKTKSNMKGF
T2 sequence (P48730 whole entry): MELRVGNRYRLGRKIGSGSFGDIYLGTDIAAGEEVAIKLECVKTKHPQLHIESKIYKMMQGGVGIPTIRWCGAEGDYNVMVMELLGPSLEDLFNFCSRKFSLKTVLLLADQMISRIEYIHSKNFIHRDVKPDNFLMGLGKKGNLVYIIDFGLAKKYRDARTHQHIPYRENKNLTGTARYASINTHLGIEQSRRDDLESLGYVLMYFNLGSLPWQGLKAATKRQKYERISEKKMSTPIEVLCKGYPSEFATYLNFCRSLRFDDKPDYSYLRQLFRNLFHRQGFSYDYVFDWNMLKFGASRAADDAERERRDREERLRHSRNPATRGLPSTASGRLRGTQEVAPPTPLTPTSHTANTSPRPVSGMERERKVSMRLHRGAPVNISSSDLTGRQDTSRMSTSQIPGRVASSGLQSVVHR

Structure (SMILES)	IC50 [1] [nM]	IC50 (full-length human CSNK1D) [nM]
O=C(Nc1cc(-c2[nH]c3c(OC[C@H]4COCCO4)cc(F)nc3c2-c2ccccn2)ccn1)C(CC(F)F)c1ccc(F)cc1 (mixture of isomers) [Example 50, (2RS)—N-{4-[7-{[(2R)-1,4-dioxan-2-yl]methoxy}-5-fluoro-3-(pyridin-2-yl)-1H-pyrrolo[3,2-b]pyridin-2-yl]pyridin-2-yl}-4,4-difluoro-2-(4-fluorophenyl)butanamide]	9.34	9.03
Cc1ccc2[nH]c(-c3ccnc(NC(=O)C(CC(F)F)c4ccc(F)cc4)c3)c(-c3ccccn3)c2n1 (racemic) [Example 4, 4,4-difluoro-2-(4-fluorophenyl)-N-{4-[5-methyl-3-(pyridin-2-yl)-1H-pyrrolo[3,2-b]pyridin-2-yl]pyridin-2-yl}butanamide]	6.49	9.45
Cc1cnc2c(-c3ccccn3)c(-c3ccnc(NC(=O)C(CC(F)F)c4ccc(F)cc4)c3)[nH]c2c1 (racemic) [Example 7, 4,4-difluoro-2-(4-fluorophenyl)-N-{4-[6-methyl-3-(pyridin-2-yl)-1H-pyrrolo[3,2-b]pyridin-2-yl]pyridin-2-yl}butanamide]	2.76	4.13
O=C(Nc1cc(-c2[nH]c3cccnc3c2-c2ccccn2)ccn1)C(CC(F)F)c1ccc(F)cc1 (racemic) [Example 10, 4,4-difluoro-2-(4-fluorophenyl)-N-{4-[3-(pyridin-2-yl)-1H-pyrrolo[3,2-b]pyridin-2-yl]pyridin-2-yl}butanamide]	2.61	4.99
O=C(Nc1cc(-c2[nH]c3cncnc3c2-c2ccccn2)ccn1)C(CC(F)F)c1ccc(F)cc1 (racemic) [Example 13, 4,4-difluoro-2-(4-fluorophenyl)-N-{4-[7-(pyridin-2-yl)-5H-pyrrolo[3,2-d]pyrimidin-6-yl]pyridin-2-yl}butanamide]	4.66	12.3
O=C(Nc1cc(-c2[nH]c3cc(F)cnc3c2-c2ccccn2)ccn1)C(CC(F)F)c1ccc(F)cc1 (racemic) [Example 16, 4,4-difluoro-2-(4-fluorophenyl)-N-{4-[6-fluoro-3-(pyridin-2-yl)-1H-pyrrolo[3,2-b]pyridin-2-yl]pyridin-2-yl}butanamide]	3.39	4.57
O=C(Nc1cc(-c2[nH]c3cc(F)cnc3c2-c2ccccc2)ccn1)C(CC(F)F)c1ccc(F)cc1 (racemic) [Example 19, 4,4-difluoro-2-(4-fluorophenyl)-N-[4-(6-fluoro-3-phenyl-1H-pyrrolo[3,2-b]pyridin-2-yl)pyridin-2-yl]butanamide]	9.22	6.92
O=C(Nc1cc(-c2[nH]c3cccnc3c2-c2ccccc2)ccn1)C(CC(F)F)c1ccc(F)cc1 (racemic) [Example 22, 4,4-difluoro-2-(4-fluorophenyl)-N-[4-(3-phenyl-1H-pyrrolo[3,2-b]pyridin-2-yl)pyridin-2-yl]butanamide]	2.37	3.18
O=C(Nc1cc(-c2[nH]c3cccnc3c2-c2cccc(F)n2)ccn1)C(CC(F)F)c1ccc(F)cc1 (racemic) [Example 25, 4,4-difluoro-2-(4-fluorophenyl)-N-{4-[3-(6-fluoropyridin-2-yl)-1H-pyrrolo[3,2-b]pyridin-2-yl]pyridin-2-yl}butanamide]	2.77	7.87
O=C(Nc1cc(-c2[nH]c3c(OCC(F)F)cc(F)nc3c2-c2ccccn2)ccn1)C(CC(F)F)c1ccc(F)cc1 (racemic) [Example 28, (2RS)—N-{4-[7-(2,2-difluoroethoxy)-5-fluoro-3-(pyridin-2-yl)-1H-pyrrolo[3,2-b]pyridin-2-yl]pyridin-2-yl}-4,4-difluoro-2-(4-fluorophenyl)butanamide]	3.95	4
O=C(Nc1cc(-c2[nH]c3nccnc3c2-c2ccccn2)ccn1)C(CC(F)F)c1ccc(F)cc1 (racemic) [Example 31, (2RS)-4,4-difluoro-2-(4-fluorophenyl)-N-{4-[7-(pyridin-2-yl)-5H-pyrrolo[2,3-b]pyrazin-6-yl]pyridin-2-yl}butanamide]	3.04	7.81
Cc1cc2[nH]c(-c3ccnc(NC(=O)C(CC(F)F)c4ccc(F)cc4)c3)c(-c3ccccn3)c2nc1F (racemic) [Example 33, (rac)-4,4-difluoro-N-{4-[5-fluoro-6-methyl-3-(pyridin-2-yl)-1H-pyrrolo[3,2-b]pyridin-2-yl]pyridin-2-yl}-2-(4-fluorophenyl)butanamide]	19.5	37.3
Cc1cc(F)nc2c(-c3ccccn3)c(-c3ccnc(NC(=O)C(CC(F)F)c4ccc(F)cc4)c3)[nH]c12 (racemic) [Example 36, (rac)-4,4-difluoro-N-{4-[5-fluoro-7-methyl-3-(pyridin-2-yl)-1H-pyrrolo[3,2-b]pyridin-2-yl]pyridin-2-yl}-2-(4-fluorophenyl)butanamide]	21.4	41.9
COc1cc(F)nc2c(-c3ccccn3)c(-c3ccnc(NC(=O)C(CC(F)F)c4ccc(F)cc4)c3)[nH]c12 (racemic) [Example 39, (rac)-4,4-difluoro-N-{4-[5-fluoro-7-methoxy-3-(pyridin-2-yl)-1H-pyrrolo[3,2-b]pyridin-2-yl]pyridin-2-yl}-2-(4-fluorophenyl)butanamide]	19	40.2
O=C(Nc1cc(-c2[nH]c3c(OC4CC4)cc(F)nc3c2-c2ccccn2)ccn1)C(CC(F)F)c1ccc(F)cc1 (racemic) [Example 42, (rac)-N-{4-[7-(cyclopropyloxy)-5-fluoro-3-(pyridin-2-yl)-1H-pyrrolo[3,2-b]pyridin-2-yl]pyridin-2-yl}-4,4-difluoro-2-(4-fluorophenyl)butanamide]	8.22	14.4
O=C(Nc1cc(-c2[nH]c3c(CC4CC4)cc(F)nc3c2-c2ccccn2)ccn1)C(CC(F)F)c1ccc(F)cc1 (racemic) [Example 46, (2RS)—N-{4-[7-(cyclopropylmethyl)-5-fluoro-3-(pyridin-2-yl)-1H-pyrrolo[3,2-b]pyridin-2-yl]pyridin-2-yl}-4,4-difluoro-2-(4-fluorophenyl)butanamide]	23.2	19.2
